Laboratory results taken from PubChem BioAssay AID1918933 (Molecular Pharmacology Branch, DTP, NCI, 2023).

Test system: 186277-243-T-J2-PDC complex spheroid viability
Assay: Anticancer human tumor 186277-243-T-J2-PDC patient-derived colon adenocarcinoma cell line growth inhibition
Details: for IC50: curve of first compound; for viability, T/C: stronger effect = lower value
Procedure, shortened: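 Drug combinations with the LSD1 inhibitor iadademstat tested on tumor cells co-cultured as spheroids with endothelial cells and mesenchymal stem cells. Concentrations descended in half-log increments from clinical Cmax or 10 microM.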

[1] = second compound 0.1 µM, first compound 0.0316 µM
[2] = second compound 0.1 µM, first compound 0.1 µM
[3] = second compound 0.1 µM, first compound 0.316 µM
[4] = second compound 0.1 µM, first compound 1 µM
[5] = second compound 0.1 µM, first compound 3.16 µM
[6] = second compound 0.1 µM, first compound 10 µM
[7] = second compound 0.316 µM, first compound 0.0316 µM
[8] = second compound 0.316 µM, first compound 0.1 µM
[9] = second compound 0.316 µM, first compound 0.316 µM
[10] = second compound 0.316 µM, first compound 1 µM
[11] = second compound 0.316 µM, first compound 3.16 µM
[12] = second compound 0.316 µM, first compound 10 µM
[13] = second compound 1 µM, first compound 0.0316 µM
[14] = second compound 1 µM, first compound 0.1 µM
[15] = second compound 1 µM, first compound 0.316 µM
[16] = second compound 1 µM, first compound 1 µM
[17] = second compound 1 µM, first compound 3.16 µM
[18] = second compound 1 µM, first compound 10 µM
[19] = second compound 3.16 µM, first compound 0.0316 µM
[20] = second compound 3.16 µM, first compound 0.1 µM
[21] = second compound 3.16 µM, first compound 0.316 µM
[22] = second compound 3.16 µM, first compound 1 µM
[23] = second compound 3.16 µM, first compound 3.16 µM
[24] = second compound 3.16 µM, first compound 10 µM
[25] = second compound 10 µM, first compound 0.0316 µM
[26] = second compound 10 µM, first compound 0.1 µM
[27] = second compound 10 µM, first compound 0.316 µM
[28] = second compound 10 µM, first compound 1 µM
[29] = second compound 10 µM, first compound 3.16 µM
[30] = second compound 10 µM, first compound 10 µM
[31] = second compound 0.1 µM, first compound 0.00949 µM
[32] = second compound 0.1 µM, first compound 0.03 µM
[33] = second compound 0.1 µM, first compound 0.0949 µM
[34] = second compound 0.1 µM, first compound 0.3 µM
[35] = second compound 0.316 µM, first compound 0.00949 µM
[36] = second compound 0.316 µM, first compound 0.03 µM
[37] = second compound 0.316 µM, first compound 0.0949 µM
[38] = second compound 0.316 µM, first compound 0.3 µM
[39] = second compound 1 µM, first compound 0.00949 µM
[40] = second compound 1 µM, first compound 0.03 µM
[41] = second compound 1 µM, first compound 0.0949 µM
[42] = second compound 1 µM, first compound 0.3 µM
[43] = second compound 3.16 µM, first compound 0.00949 µM
[44] = second compound 3.16 µM, first compound 0.03 µM
[45] = second compound 3.16 µM, first compound 0.0949 µM
[46] = second compound 3.16 µM, first compound 0.3 µM
[47] = second compound 10 µM, first compound 0.00949 µM
[48] = second compound 10 µM, first compound 0.03 µM
[49] = second compound 10 µM, first compound 0.0949 µM
[50] = second compound 10 µM, first compound 0.3 µM
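Note: 7 day exposure to compounds.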
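Throughout, for viability, T/C: 100% = DMSO vehicle control viability.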

CC1(C)CCC(CN2CCN(c3ccc(C(=O)NS(=O)(=O)c4ccc(NCC5CCOCC5)c([N+](=O)[O-])c4)c(Oc4cnc5[nH]ccc5c4)c3)CC2)=C(c2ccc(Cl)cc2)C1 + NC1CC1c1ccc(-c2cccc(O)c2)cc1
IC50 (second compound 0.1 µM): 2230 nM | IC50 (second compound 0.316 µM): 2260 nM | IC50 (second compound 1 µM): 2240 nM | IC50 (second compound 3.16 µM): 2410 nM | IC50 (second compound 10 µM): 2150 nM | viability, T/C [1]: 106% | viability, T/C [2]: 101% | viability, T/C [3]: 117% | viability, T/C [4]: 99.1% | viability, T/C [5]: 28.4% | viability, T/C [6]: 0.17% | viability, T/C [7]: 98.2% | viability, T/C [8]: 97.4% | viability, T/C [9]: 108% | viability, T/C [10]: 98.8% | viability, T/C [11]: 29.9% | viability, T/C [12]: 0.15% | viability, T/C [13]: 102% | viability, T/C [14]: 106% | viability, T/C [15]: 98.5% | viability, T/C [16]: 91.3% | viability, T/C [17]: 32.6% | viability, T/C [18]: 0.14% | viability, T/C [19]: 106% | viability, T/C [20]: 101% | viability, T/C [21]: 107% | viability, T/C [22]: 94.4% | viability, T/C [23]: 36.4% | viability, T/C [24]: 0.15% | viability, T/C [25]: 107% | viability, T/C [26]: 107% | viability, T/C [27]: 101% | viability, T/C [28]: 99.7% | viability, T/C [29]: 25% | viability, T/C [30]: 0.2%

CC1COCCN1c1cc(C2(S(C)(=N)=O)CC2)nc(-c2ccnc3[nH]ccc23)n1 (stereo not given) + NC1CC1c1ccc(-c2cccc(O)c2)cc1
IC50 (second compound 0.1 µM): 1060 nM | IC50 (second compound 0.316 µM): 1140 nM | IC50 (second compound 1 µM): 1270 nM | IC50 (second compound 3.16 µM): 1190 nM | IC50 (second compound 10 µM): 872 nM | viability, T/C [1]: 102% | viability, T/C [2]: 99.8% | viability, T/C [3]: 99.6% | viability, T/C [4]: 52.1% | viability, T/C [5]: 9.5% | viability, T/C [6]: 5.47% | viability, T/C [7]: 95.4% | viability, T/C [8]: 97.8% | viability, T/C [9]: 92.2% | viability, T/C [10]: 55% | viability, T/C [11]: 10.5% | viability, T/C [12]: 5.49% | viability, T/C [13]: 108% | viability, T/C [14]: 108% | viability, T/C [15]: 105% | viability, T/C [16]: 59.5% | viability, T/C [17]: 12.5% | viability, T/C [18]: 5.36% | viability, T/C [19]: 104% | viability, T/C [20]: 104% | viability, T/C [21]: 109% | viability, T/C [22]: 57.5% | viability, T/C [23]: 11.6% | viability, T/C [24]: 6.19% | viability, T/C [25]: 106% | viability, T/C [26]: 89.6% | viability, T/C [27]: 92.7% | viability, T/C [28]: 44.3% | viability, T/C [29]: 8% | viability, T/C [30]: 4.85%

CCN(c1cc(-c2ccc(CN3CCOCC3)cc2)cc(C(=O)NCc2c(C)cc(C)[nH]c2=O)c1C)C1CCOCC1 + NC1CC1c1ccc(-c2cccc(O)c2)cc1
IC50 (second compound 0.1 µM): 2220 nM | IC50 (second compound 0.316 µM): 2280 nM | IC50 (second compound 1 µM): 2190 nM | IC50 (second compound 3.16 µM): 2220 nM | IC50 (second compound 10 µM): 2010 nM | viability, T/C [31]: 92% | viability, T/C [32]: 113% | viability, T/C [33]: 113% | viability, T/C [34]: 112% | viability, T/C (second compound 0.1 µM, first compound 0.949 µM): 123% | viability, T/C (second compound 0.1 µM, first compound 3 µM): 28.4% | viability, T/C [35]: 107% | viability, T/C [36]: 113% | viability, T/C [37]: 129% | viability, T/C [38]: 120% | viability, T/C (second compound 0.316 µM, first compound 0.949 µM): 120% | viability, T/C (second compound 0.316 µM, first compound 3 µM): 28.6% | viability, T/C [39]: 104% | viability, T/C [40]: 111% | viability, T/C [41]: 121% | viability, T/C [42]: 116% | viability, T/C (second compound 1 µM, first compound 0.949 µM): 120% | viability, T/C (second compound 1 µM, first compound 3 µM): 25.8% | viability, T/C [43]: 106% | viability, T/C [44]: 113% | viability, T/C [45]: 111% | viability, T/C [46]: 108% | viability, T/C (second compound 3.16 µM, first compound 0.949 µM): 124% | viability, T/C (second compound 3.16 µM, first compound 3 µM): 27.8% | viability, T/C [47]: 100% | viability, T/C [48]: 99.7% | viability, T/C [49]: 88.4% | viability, T/C [50]: 107% | viability, T/C (second compound 10 µM, first compound 0.949 µM): 103% | viability, T/C (second compound 10 µM, first compound 3 µM): 23.5%

Cn1ncnc1C1c2n[nH]c(=O)c3cc(F)cc(c23)NC1c1ccc(F)cc1 (stereo not given) + NC1CC1c1ccc(-c2cccc(O)c2)cc1
IC50 (second compound 0.1 µM): > 100 nM | IC50 (second compound 0.316 µM): > 100 nM | IC50 (second compound 1 µM): > 100 nM | IC50 (second compound 3.16 µM): > 100 nM | IC50 (second compound 10 µM): > 100 nM | viability, T/C (second compound 0.1 µM, first compound 0.000316 µM): 110% | viability, T/C (second compound 0.1 µM, first compound 0.001 µM): 109% | viability, T/C (second compound 0.1 µM, first compound 0.00316 µM): 112% | viability, T/C (second compound 0.1 µM, first compound 0.01 µM): 110% | viability, T/C [1]: 106% | viability, T/C [2]: 115% | viability, T/C (second compound 0.316 µM, first compound 0.000316 µM): 113% | viability, T/C (second compound 0.316 µM, first compound 0.001 µM): 110% | viability, T/C (second compound 0.316 µM, first compound 0.00316 µM): 93.8% | viability, T/C (second compound 0.316 µM, first compound 0.01 µM): 97.7% | viability, T/C [7]: 100% | viability, T/C [8]: 106% | viability, T/C (second compound 1 µM, first compound 0.000316 µM): 113% | viability, T/C (second compound 1 µM, first compound 0.001 µM): 114% | viability, T/C (second compound 1 µM, first compound 0.00316 µM): 120% | viability, T/C (second compound 1 µM, first compound 0.01 µM): 104% | viability, T/C [13]: 108% | viability, T/C [14]: 110% | viability, T/C (second compound 3.16 µM, first compound 0.000316 µM): 110% | viability, T/C (second compound 3.16 µM, first compound 0.001 µM): 115% | viability, T/C (second compound 3.16 µM, first compound 0.00316 µM): 112% | viability, T/C (second compound 3.16 µM, first compound 0.01 µM): 107% | viability, T/C [19]: 113% | viability, T/C [20]: 110% | viability, T/C (second compound 10 µM, first compound 0.000316 µM): 110% | viability, T/C (second compound 10 µM, first compound 0.001 µM): 106% | viability, T/C (second compound 10 µM, first compound 0.00316 µM): 127% | viability, T/C (second compound 10 µM, first compound 0.01 µM): 109% | viability, T/C [25]: 104% | viability, T/C [26]: 100%

Nc1ncn(C2CC(O)C(CO)S2)c(=O)n1 (stereo not given) + NC1CC1c1ccc(-c2cccc(O)c2)cc1
IC50 (second compound 0.1 µM): 105 nM | IC50 (second compound 0.316 µM): 88.8 nM | IC50 (second compound 1 µM): 91.4 nM | IC50 (second compound 3.16 µM): 97.4 nM | IC50 (second compound 10 µM): 79.5 nM | viability, T/C (second compound 0.1 µM, first compound 0.000949 µM): 113% | viability, T/C (second compound 0.1 µM, first compound 0.003 µM): 123% | viability, T/C [31]: 125% | viability, T/C [32]: 143% | viability, T/C [33]: 53.8% | viability, T/C [34]: 10.9% | viability, T/C (second compound 0.316 µM, first compound 0.000949 µM): 103% | viability, T/C (second compound 0.316 µM, first compound 0.003 µM): 119% | viability, T/C [35]: 110% | viability, T/C [36]: 129% | viability, T/C [37]: 46% | viability, T/C [38]: 9.74% | viability, T/C (second compound 1 µM, first compound 0.000949 µM): 102% | viability, T/C (second compound 1 µM, first compound 0.003 µM): 106% | viability, T/C [39]: 130% | viability, T/C [40]: 128% | viability, T/C [41]: 47.7% | viability, T/C [42]: 10.7% | viability, T/C (second compound 3.16 µM, first compound 0.000949 µM): 113% | viability, T/C (second compound 3.16 µM, first compound 0.003 µM): 111% | viability, T/C [43]: 105% | viability, T/C [44]: 137% | viability, T/C [45]: 50.9% | viability, T/C [46]: 10.3% | viability, T/C (second compound 10 µM, first compound 0.000949 µM): 93.8% | viability, T/C (second compound 10 µM, first compound 0.003 µM): 94.1% | viability, T/C [47]: 104% | viability, T/C [48]: 107% | viability, T/C [49]: 41% | viability, T/C [50]: 8.69%
